The structures appear in SMILES notation.

The test system of this assay is Thoracic aorta. The experiment in a line: Vasorelaxing effect in endothelium-intact Wistar rat thoracic aorta ring assessed as inhibition of phenylephrine-stimulated contraction. The format is functional, tissue-based.
As to `CCC[C@H](CC(=O)O)c1c2c(c(O)c3c1O[C@H](C)[C@@H](C)C3=O)C=CC(C)(C)O2`, the 50% inhibitory concentration (IC50) worked out at 13.8 µM and the inhibition result was “Dose-dependent effect”.

On to `C[C@H](CC(=O)O)c1c2c(c(O)c3c1O[C@H](C)[C@H](C)C3=O)C=CC(C)(C)O2`, for which the IC50 stood at 10.3 µM and the inhibition result is “Dose-dependent effect”.

For `CC[C@H](CC(=O)O)c1c2c(c(O)c3c1O[C@H](C)[C@@H](C)C3=O)C=CC(C)(C)O2`, the IC50 is 10.4 µM and the inhibition entry is “Dose-dependent effect”.

As for `CCC[C@H](CC(=O)O)c1c2c(c(O)c3c1O[C@H](C)[C@H](C)C3=O)C=CC(C)(C)O2`, the IC50 turned out to be 18.9 µM and the inhibition result was “Dose-dependent effect”.

For the compound `CCCC[C@H](CC(=O)O)c1c2c(c(O)c3c1O[C@H](C)[C@H](C)C3=O)C=CC(C)(C)O2`, the IC50 is 12.1 µM and the inhibition entry was “Dose-dependent effect”.

Regarding `CC[C@H](CC(=O)O)c1c2c(c(O)c3c1O[C@H](C)[C@H](C)C3=O)C=CC(C)(C)O2`, the concentration for half-maximal inhibition (IC50) came to 6.07 µM and the inhibition result was “Dose-dependent effect”.

The values are drawn from ChEMBL document CHEMBL4038295, “Calofolic acids A-F, chromanones from the bark of Calophyllum scriblitifolium with vasorelaxation activity” (Bioorg Med Chem Lett, 2017).
